From PubChem BioAssay (NCI) come the findings set out here.

The subject of one test is P388 leukemia. In words: NCI tumour cell line growth inhibition, 48 h.
The test system of the next test is P388/ADR leukemia. Description: NCI tumour cell line growth inhibition, 48 h.

SMILES strings stand for the structures. Values after ≈ are worked out from the molar mass of the structure shown. Values joined by “and” are separate entries in the source; they are usually repeats but may differ in a detail not shown here. Identical values can stand only once.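 Dose response: 5 concentrations. Exposure: 48 h. Format: 96-well plates. Endpoint: linear interpolation; highest concentration if not reached. GI50 is the concentration that inhibits growth by half. TGI is the concentration that stops growth completely.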

`Cc1c[nH]c2c(O)cc3c(c12)[C@H](CCl)CN3C(=O)c1cc2cc(NC(=O)Nc3ccc4[nH]c(C(=O)N5C[C@@H](CCl)c6c5cc(O)c5[nH]cc(C)c65)cc4c3)ccc2[nH]1`: the GI50 in the test with P388 leukemia was 0.000887 ng/mL and 0.888 ng/mL. In addition, in the test on P388/ADR leukemia, the GI50 was 0.888 ng/mL (≈ 0.00109 µM) and the TGI is 83 ng/mL (≈ 0.102 µM).
